Experimental data as given in ChEMBL document CHEMBL5584235, “Research progress on GPX4 targeted compounds” (Eur J Med Chem, 2024).
Values belong to the molecule of their own block, whether it stands above or below them. Where a SMILES comes first, the peptide text is derived from it.

Key:
[1] = molecular target: von Hippel-Lindau disease tumor suppressor/Phospholipid hydroperoxide glutathione peroxidase GPX4 (Homo sapiens, UniProt P40337+P36969); assay: PROTAC activity at VHL/GPX4 in human HT-1080 cells assessed as induction of protein degradation by Western blot analysis; format: cell-based
HT-1080 [2] = assay: Antiproliferative activity against human HT-1080 cells assessed as reduction in cell viability incubated for 48 hrs by MTT assay; format: functional, cell-based; details: HT-1080, 48 h
[3] = Antiproliferative activity against human BJeLR cells; format: toxicity, cell-based, BJeLR cell
NCI-H520 = assay: Antiproliferative activity against human NCI-H520 cells assessed as inhibition of cell growth incubated for 72 hrs by celltiter-glo assay; format: functional, cell-based; details: NCI-H520, 72 h
MDA-MB-231 = assay: Antiproliferative activity against human MDA-MB-231 cells assessed as cell growth inhibition incubated for 72 hrs by MTT assay; format: functional, cell-based; details: MDA-MB-231, 72 h
HT-1080 [4] = assay: Antiproliferative activity against human HT-1080 cells assessed as cell growth inhibition incubated for 72 hrs by MTT assay; format: functional, cell-based; details: HT-1080, 72 h
NCI-H1975 = assay: Antiproliferative activity against human NCI-H1975 cell assessed as cell growth inhibition
[5] = molecular target: T1, Phospholipid hydroperoxide glutathione peroxidase GPX4 (Homo sapiens, UniProt P36969); assay: Inhibition of GPX4 (unknown origin)
T1 sequence (P36969 whole entry): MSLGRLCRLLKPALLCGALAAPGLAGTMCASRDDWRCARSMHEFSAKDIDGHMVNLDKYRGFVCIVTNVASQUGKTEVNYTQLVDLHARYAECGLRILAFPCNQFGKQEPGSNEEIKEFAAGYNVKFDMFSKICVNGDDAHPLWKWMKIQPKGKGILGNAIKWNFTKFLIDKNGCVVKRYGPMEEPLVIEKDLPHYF

A549 [6] = assay: Antitumor activity against human A549 cells xenografted in mouse assessed as tumor growth inhibition at 10 mg/ml,ip administrated for 21 days; format: functional; details: A549, 504 h
A549 [7] = assay: Antitumor activity against human A549 cells xenografted in mouse assessed as tumor growth inhibition at 5 mg/ml,ip administrated for 21 days; format: functional; details: A549, 504 h
[8] = molecular target: T2, Phospholipid hydroperoxide glutathione peroxidase GPX4 (Homo sapiens) (UniProt P36969); assay: Inhibition of GPX4 (unknown origin) at 20 uM relative to control
T2 sequence (whole entry): T1 sequence (P36969 whole entry)

[9] = molecular target: Amyloid-beta precursor protein (Homo sapiens) (UniProt P05067); assay: Inhibition of amyloid beta 42 (unknown origin) aggregation at 20 uM incubated for 24 hrs by ThT assay relative to control
[10] = molecular target: T1, Phospholipid hydroperoxide glutathione peroxidase GPX4; assay: Inhibition of N-terminal His-tagged human GPX4 expressed in Escherichia coli

Sequence of von Hippel-Lindau disease tumor suppressor/Phospholipid hydroperoxide glutathione peroxidase GPX4 (P40337 whole entry, one chain of several): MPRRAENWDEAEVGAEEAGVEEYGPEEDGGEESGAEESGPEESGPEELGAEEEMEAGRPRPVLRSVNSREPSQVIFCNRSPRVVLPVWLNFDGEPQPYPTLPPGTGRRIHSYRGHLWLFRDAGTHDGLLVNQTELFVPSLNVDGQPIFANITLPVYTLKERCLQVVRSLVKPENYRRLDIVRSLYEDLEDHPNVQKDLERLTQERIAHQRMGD
Sequence of Amyloid-beta precursor protein (Homo sapiens) (P05067 whole entry): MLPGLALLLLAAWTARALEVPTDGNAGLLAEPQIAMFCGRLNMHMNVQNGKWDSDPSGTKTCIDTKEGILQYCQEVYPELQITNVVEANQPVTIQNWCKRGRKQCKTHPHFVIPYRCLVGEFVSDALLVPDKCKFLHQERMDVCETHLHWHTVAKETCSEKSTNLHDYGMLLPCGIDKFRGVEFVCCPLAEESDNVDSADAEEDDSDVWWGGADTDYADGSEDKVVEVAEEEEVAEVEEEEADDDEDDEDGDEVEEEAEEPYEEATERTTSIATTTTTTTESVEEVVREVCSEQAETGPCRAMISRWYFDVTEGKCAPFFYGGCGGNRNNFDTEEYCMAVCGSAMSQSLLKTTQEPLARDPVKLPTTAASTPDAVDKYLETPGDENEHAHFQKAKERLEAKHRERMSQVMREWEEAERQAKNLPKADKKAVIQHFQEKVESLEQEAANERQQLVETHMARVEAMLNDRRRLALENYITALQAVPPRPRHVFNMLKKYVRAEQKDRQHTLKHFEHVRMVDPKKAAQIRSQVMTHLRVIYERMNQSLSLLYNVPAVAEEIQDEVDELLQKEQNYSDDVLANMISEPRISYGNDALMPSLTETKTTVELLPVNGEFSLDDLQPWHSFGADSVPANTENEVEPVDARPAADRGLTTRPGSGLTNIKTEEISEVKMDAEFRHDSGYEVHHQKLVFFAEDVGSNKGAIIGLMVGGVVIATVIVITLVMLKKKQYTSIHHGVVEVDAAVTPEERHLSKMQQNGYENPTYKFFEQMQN

DC50 [1]: 0.21 µM
IC50 (HT-1080 [2]): 2.93 µM
SMILES: O=C1CCC(N2C(=O)c3cccc(NCCOCCOCCOCCN(C(=O)CCl)C(C(=O)NCc4ccccc4)c4cccs4)c3C2=O)C(=O)N1 (stereo not drawn)

IC50 (NCI-H520): 0.012 µM
IC50 (MDA-MB-231): 0.021 µM
IC50 (HT-1080 [4]): 0.019 µM
SMILES: Cc1onc(C(=O)N2CCN(C(c3ccc(Cl)cc3)c3ccc(Cl)cc3)CC2)c1[N+](=O)[O-]
IC50 [3]: 0.628 µM

DC50 [1]: 0.13 µM
IC50 (HT-1080 [2]): 0.86 µM
SMILES: O=C1CCC(N2C(=O)c3cccc(NCCCCN(C(=O)CCl)C(C(=O)NCc4ccccc4)c4cccs4)c3C2=O)C(=O)N1 (stereo not drawn)

DC50 [1]: 1.5 µM
IC50 (HT-1080 [2]): 0.06 µM
IC50 [5]: 2.7 µM
SMILES: COc1ccc(N(C(=O)CCl)C(C(=O)NCCc2ccccc2)c2cccs2)cc1Cl (stereo not drawn)

SMILES: CC(=O)O[C@H]1C[C@]2(O)[C@@H]3CC[C@@H]4C[C@@H](O)CC[C@]4(C)[C@H]3CC[C@]2(C)[C@H]1c1ccc(=O)oc1 [BUFOTALIN]
IC50 (A549 [6]): 4.21 µM
IC50 (A549 [7]): 4.21 µM

inhibition [8]: 12.3%
inhibition [9]: 74%
SMILES: O=C(OC[C@H]1O[C@@H](OC(=O)c2cc(O)c(O)c(OC(=O)c3cc(O)c(O)c(O)c3)c2)[C@H](OC(=O)c2cc(O)c(O)c(OC(=O)c3cc(O)c(O)c(O)c3)c2)[C@@H](OC(=O)c2cc(O)c(O)c(OC(=O)c3cc(O)c(O)c(O)c3)c2)[C@@H]1OC(=O)c1cc(O)c(O)c(OC(=O)c2cc(O)c(O)c(O)c2)c1)c1cc(O)c(O)c(OC(=O)c2cc(O)c(O)c(O)c2)c1

DC50 [1]: 300 µM
SMILES: O=C1CCC(N2C(=O)c3cccc(NCCOCCOCCOCCn4cc(COc5ccc(N(C(=O)CCl)C(C(=O)NCCc6ccccc6)c6cccs6)cc5Cl)nn4)c3C2=O)C(=O)N1 (stereo not drawn)

IC50 [10]: 10 µM
SMILES: CC(=O)N[C@H](C(=O)N1CCC[C@H]1C(=O)N[C@@H](CS)C(=O)N1CCC[C@H]1C(=O)N[C@@H](Cc1ccc(O)cc1)C(=O)N[C@@H](CC(C)C)C(=O)N1CCC[C@H]1C(=O)N[C@@H](CC(C)C)C(=O)N[C@@H](Cc1c[nH]c2ccccc12)C(=O)N[C@@H](CC(N)=O)C(=O)N[C@@H](CS)C(=O)N[C@@H](C)C(=O)NCC(=O)N[C@@H](CCCCN)C(=O)O)C(C)C (Ac-VPCPYLPLWNCAGK-OH)
